Like-named read-outs stand apart in the source and are kept apart here.
Key:
Assay in all cases: Radiolabeled ATP kinase assay, panel of 60 kinases (Table S5)
Type in all cases: biochemical
[1] = molecular target: T1, panel of 60 human kinases (Homo sapiens, UniProt P00519); conditions: ABL1; 0.1 μM; 10 μM ATP; read-out: % Enzyme Activity (relative to DSMO controls)
T1 construct: purchased Reaction Biology Corp
Procedure: (§1) To better understand the biologically relevant targets of compound 1 and its analogs, a second round of cell-free kinase assays was performed. In this expanded assay, we selected ten analogs ranging from moderately to very strongly protective in the CPA assay. These analogs were evaluated for their ability to inhibit a selection of 60 kinases at 0.1 μM and 0.5 μM. […] RNAseq data were used to confirm the expression of each kinase in ES MNs (see Example 12).
(§2) RNAseq data were used to confirm the expression of each kinase in ES motor neurons (see Example 12).

[2] = molecular target: T2, panel of 60 human kinases (Homo sapiens, UniProt P50750); conditions: 0.1 μM, 10 μM ATP, read-out: % Enzyme Activity (relative to DSMO controls)
T2 construct: purchased Reaction Biology Corp
Procedure: as §1, §2

[3] = molecular target: T3, panel of 60 human kinases (Homo sapiens, UniProt Q13627); conditions: DYRK/RK1A; 0.1 μM; 10 μM ATP; read-out: % Enzyme Activity (relative to DSMO controls)
T3 construct: purchased Reaction Biology Corp
Procedure: as §1, §2

[4] = molecular target: T4, panel of 60 human kinases (Homo sapiens, UniProt Q7L7X3); conditions: TAOK1; 0.1 μM; 10 μM ATP; read-out: % Enzyme Activity (relative to DSMO controls)
T4 construct: purchased Reaction Biology Corp
T4 sequence (Q7L7X3 1-1001): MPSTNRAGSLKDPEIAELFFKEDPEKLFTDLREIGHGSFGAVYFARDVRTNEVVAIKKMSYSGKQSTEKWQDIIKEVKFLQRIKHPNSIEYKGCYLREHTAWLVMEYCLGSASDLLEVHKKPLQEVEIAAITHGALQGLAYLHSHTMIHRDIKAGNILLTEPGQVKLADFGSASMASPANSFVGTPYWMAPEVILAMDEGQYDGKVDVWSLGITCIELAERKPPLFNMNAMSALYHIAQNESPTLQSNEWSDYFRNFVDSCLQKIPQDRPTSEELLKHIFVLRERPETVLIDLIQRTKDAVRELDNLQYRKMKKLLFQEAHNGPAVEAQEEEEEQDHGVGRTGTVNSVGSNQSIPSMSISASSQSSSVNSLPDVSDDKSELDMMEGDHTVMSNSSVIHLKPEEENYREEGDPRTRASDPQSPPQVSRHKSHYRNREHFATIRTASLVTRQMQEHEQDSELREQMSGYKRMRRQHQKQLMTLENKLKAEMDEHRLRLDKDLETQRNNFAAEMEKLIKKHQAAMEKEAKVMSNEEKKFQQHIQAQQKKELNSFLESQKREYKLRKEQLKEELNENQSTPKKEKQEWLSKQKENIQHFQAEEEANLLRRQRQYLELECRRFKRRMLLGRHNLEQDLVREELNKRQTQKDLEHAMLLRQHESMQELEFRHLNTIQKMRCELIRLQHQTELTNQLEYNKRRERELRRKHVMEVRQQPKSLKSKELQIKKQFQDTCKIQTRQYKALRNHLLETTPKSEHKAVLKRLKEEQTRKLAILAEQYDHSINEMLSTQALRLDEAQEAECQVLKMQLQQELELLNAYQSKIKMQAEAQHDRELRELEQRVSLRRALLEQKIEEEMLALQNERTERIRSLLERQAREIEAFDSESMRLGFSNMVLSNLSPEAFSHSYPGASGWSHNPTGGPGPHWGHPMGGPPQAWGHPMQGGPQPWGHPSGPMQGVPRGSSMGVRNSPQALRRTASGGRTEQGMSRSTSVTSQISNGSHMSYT
Procedure: as §1, §2

[5] = molecular target: T5, panel of 60 human kinases (Homo sapiens, UniProt Q99683); conditions: ASK1/MAP3K5; 0.1 μM; 10 μM ATP; read-out: % Enzyme Activity (relative to DSMO controls)
T5 construct: purchased Reaction Biology Corp
T5 sequence (Q99683 1-1374): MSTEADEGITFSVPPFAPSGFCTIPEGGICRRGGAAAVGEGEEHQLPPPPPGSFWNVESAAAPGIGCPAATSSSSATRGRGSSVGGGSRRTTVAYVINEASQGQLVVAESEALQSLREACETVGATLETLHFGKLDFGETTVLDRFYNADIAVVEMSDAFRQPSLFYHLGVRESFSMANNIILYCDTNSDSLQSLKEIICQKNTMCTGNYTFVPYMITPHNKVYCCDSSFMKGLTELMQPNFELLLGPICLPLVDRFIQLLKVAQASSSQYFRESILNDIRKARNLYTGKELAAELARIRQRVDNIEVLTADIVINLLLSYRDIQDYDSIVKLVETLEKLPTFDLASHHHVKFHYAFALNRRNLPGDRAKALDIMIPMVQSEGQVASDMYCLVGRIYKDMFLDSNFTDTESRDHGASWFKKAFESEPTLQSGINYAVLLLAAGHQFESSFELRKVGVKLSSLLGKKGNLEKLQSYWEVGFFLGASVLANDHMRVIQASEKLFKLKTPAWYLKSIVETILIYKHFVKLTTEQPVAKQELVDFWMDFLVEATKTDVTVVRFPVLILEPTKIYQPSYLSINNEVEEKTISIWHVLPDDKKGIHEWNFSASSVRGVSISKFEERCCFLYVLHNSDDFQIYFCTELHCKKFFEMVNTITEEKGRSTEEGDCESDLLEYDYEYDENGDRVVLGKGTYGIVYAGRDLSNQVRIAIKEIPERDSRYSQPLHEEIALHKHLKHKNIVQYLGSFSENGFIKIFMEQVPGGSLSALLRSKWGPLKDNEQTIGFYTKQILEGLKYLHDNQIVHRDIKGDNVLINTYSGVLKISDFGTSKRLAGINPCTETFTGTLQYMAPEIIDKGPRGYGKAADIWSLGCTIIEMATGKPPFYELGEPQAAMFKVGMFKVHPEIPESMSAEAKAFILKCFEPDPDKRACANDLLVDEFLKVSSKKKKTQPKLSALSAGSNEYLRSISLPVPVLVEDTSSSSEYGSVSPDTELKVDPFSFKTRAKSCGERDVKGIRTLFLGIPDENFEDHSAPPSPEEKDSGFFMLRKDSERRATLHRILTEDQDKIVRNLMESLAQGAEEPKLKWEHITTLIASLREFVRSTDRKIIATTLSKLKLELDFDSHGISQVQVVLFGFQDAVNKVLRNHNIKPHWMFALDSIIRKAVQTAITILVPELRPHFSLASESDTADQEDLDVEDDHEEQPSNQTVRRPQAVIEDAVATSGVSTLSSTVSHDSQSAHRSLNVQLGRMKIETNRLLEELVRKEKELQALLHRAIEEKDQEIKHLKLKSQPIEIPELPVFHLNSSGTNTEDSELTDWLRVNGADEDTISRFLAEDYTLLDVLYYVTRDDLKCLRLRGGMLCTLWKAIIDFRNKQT
Procedure: as §1, §2

T1 sequence (P00519 whole entry): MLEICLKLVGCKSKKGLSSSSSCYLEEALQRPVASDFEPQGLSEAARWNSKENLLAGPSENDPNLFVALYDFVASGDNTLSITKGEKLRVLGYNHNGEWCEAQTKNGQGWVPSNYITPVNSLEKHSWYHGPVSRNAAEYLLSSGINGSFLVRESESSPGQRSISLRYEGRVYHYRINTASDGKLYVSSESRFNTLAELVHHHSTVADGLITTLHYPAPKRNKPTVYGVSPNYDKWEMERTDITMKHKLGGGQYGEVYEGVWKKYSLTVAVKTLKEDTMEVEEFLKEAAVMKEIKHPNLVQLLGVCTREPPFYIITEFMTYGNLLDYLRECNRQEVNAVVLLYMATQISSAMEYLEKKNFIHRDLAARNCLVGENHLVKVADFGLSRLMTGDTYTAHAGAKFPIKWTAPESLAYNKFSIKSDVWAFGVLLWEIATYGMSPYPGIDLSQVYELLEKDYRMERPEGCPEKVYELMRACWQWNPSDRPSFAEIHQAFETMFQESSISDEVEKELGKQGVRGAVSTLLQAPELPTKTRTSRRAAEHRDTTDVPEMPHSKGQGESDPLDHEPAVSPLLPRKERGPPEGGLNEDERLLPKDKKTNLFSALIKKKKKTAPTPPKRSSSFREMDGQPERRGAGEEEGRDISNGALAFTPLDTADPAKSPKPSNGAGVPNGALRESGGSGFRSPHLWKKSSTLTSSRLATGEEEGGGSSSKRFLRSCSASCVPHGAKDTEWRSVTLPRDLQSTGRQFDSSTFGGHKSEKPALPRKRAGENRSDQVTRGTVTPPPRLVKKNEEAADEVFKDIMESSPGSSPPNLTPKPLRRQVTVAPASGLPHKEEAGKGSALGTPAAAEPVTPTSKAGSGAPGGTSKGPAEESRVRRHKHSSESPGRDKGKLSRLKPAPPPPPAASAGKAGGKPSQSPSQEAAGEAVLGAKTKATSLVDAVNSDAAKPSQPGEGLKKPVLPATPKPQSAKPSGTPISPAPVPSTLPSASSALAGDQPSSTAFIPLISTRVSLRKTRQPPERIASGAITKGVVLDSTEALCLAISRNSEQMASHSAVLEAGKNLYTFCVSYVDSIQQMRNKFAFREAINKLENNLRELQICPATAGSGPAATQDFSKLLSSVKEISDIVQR
T2 sequence (P50750 whole entry): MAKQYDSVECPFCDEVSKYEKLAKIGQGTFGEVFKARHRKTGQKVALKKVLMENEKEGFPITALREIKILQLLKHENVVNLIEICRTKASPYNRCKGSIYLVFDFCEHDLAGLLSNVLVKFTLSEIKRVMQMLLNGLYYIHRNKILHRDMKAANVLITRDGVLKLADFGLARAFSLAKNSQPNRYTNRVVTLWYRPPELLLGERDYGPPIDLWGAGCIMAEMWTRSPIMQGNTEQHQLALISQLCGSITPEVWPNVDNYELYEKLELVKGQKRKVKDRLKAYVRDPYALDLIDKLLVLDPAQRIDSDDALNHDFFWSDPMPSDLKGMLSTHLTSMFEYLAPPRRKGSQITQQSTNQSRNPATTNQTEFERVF

Row | SMILES | remaining activity at 0.1 µM [1] | remaining activity at 0.1 µM ([2]; CDK9/cyclin K) | remaining activity at 0.1 µM ([2]; CDK9/cyclin T1) | remaining activity at 0.1 µM ([2]; CDK9/cyclin T2) | remaining activity at 0.1 µM [3] | remaining activity at 0.1 µM [4] | remaining activity at 0.1 µM [5]
1 | CN1CCN(Cc2ccc(-c3cnc4[nH]cc(-c5ccc6[nH]ccc6c5)c4c3)cc2)CC1 [Compound 1, 3-(1H-Indol-5-yl)-5-(4-((4-methylpiperazin-1-yl)methyl)phenyl)-1H-pyrrolo[2,3-b]pyridine, reference compound] | 46.6% | 102% | 96.6% | 98.1% | 41% | 63.5% | 90.8%
2 | CN1CCN(Cc2ccc(-c3cnc4[nH]cc(-c5cccc(Cl)c5)c4c3)cc2)CC1 [Compound 7ad, 3-(3-Chlorophenyl)-5-(4-((4-methylpiperazin-1-yl)methyl)phenyl)-1H-pyrrolo[2,3-b]pyridine] | 77.3% | 99.7% | 78% | 95.2% | 53.4% | 75.4% | 95.4%
3 | CN1CCN(Cc2ccc(-c3cnc4[nH]cc(-c5cnn(Cc6ccccc6)c5)c4c3)cc2)CC1 [Compound 7ah, 3-(1-Benzyl-1H-pyrazol-4-yl)-5-(4-((4-methylpiperazin-1-yl)methyl)phenyl)-1H-pyrrolo[2,3-b]pyridine] | 81% | 93.3% | 57.8% | 82.7% | 4.52% | 62.1% | 95.6%
4 | Cc1nn(C)c(C)c1-c1c[nH]c2ncc(-c3ccc(CN4CCN(C)CC4)cc3)cc12 [Compound 7ai, 5-(4-((4-Methylpiperazin-1-yl)methyl)phenyl)-3-(1,3,5-trimethyl-1H-pyrazol-4-yl)-1H-pyrrolo[2,3-b]pyridine] | 26.3% | 99.7% | 85.8% | 84.8% | 41.7% | 93.3% | 96.2%
5 | CN1CCN(Cc2ccc(-c3cnc4[nH]cc(-c5ccccc5Cl)c4c3)cc2)CC1 [Compound 7as, 3-(2-Chlorophenyl)-5-(4-((4-methylpiperazin-1-yl)methyl)phenyl)-1H-pyrrolo[2,3-b]pyridine] | 5.92% | 96.6% | 82.3% | 74.2% | 42% | 39.3% | 87.6%
6 | COc1ccccc1-c1c[nH]c2ncc(-c3ccc(CN4CCN(C)CC4)cc3)cc12 [Compound 7at, 3-(2-Methoxyphenyl)-5-(4-((4-methylpiperazin-1-yl)methyl)phenyl)-1H-pyrrolo[2,3-b]pyridine] | 19% | 79.5% | 46.3% | 37.4% | 57.4% | 40.5% | 96.3%
7 | CN1CCN(Cc2ccc(-c3cnc4[nH]cc(-c5ccc6c(c5)OCCO6)c4c3)cc2)CC1 [Compound 7d, 3-(2,3-Dihydrobenzo[b][1,4]dioxin-6-yl)-5-(4-((4-methylpiperazin-1-yl)methyl)phenyl)-1H-pyrrolo[2,3-b]pyridine] | 74.5% | 95.8% | 85.5% | 93.7% | 3.15% | 37.3% | 80.2%
8 | CN1CCN(Cc2ccc(-c3cnc4[nH]cc(-c5ccncc5)c4c3)cc2)CC1 [Compound 7n, 5-(4-((4-Methylpiperazin-1-yl)methyl)phenyl)-3-(pyridin-4-yl)-1H-pyrrolo[2,3-b]pyridine] | 88.4% | 83.4% | 47.9% | 38.8% | 40.3% | 87.4% | 95.4%
9 | CN1CCN(Cc2ccc(-c3cnc4[nH]cc(-c5ccoc5)c4c3)cc2)CC1 [Compound 7w, 3-(Furan-3-yl)-5-(4-((4-methylpiperazin-1-yl)methyl)phenyl)-1H-pyrrolo[2,3-b]pyridine] | 64.8% | 97.8% | 96.1% | 65.6% | 71.2% | 90% | 96%
